For two molecules, inhibition results are on record in US10995070B2, “Acetyl-CoA carboxylase modulators” (Monsanto Technology LLC, priority 2013, dated 2021).

Common to all, as to type: cell-based
One test concerns Fusarium virguliforme. The test can be described thus: Fungal growth inhibition assay, F. virguliforme. To be noted: 48 h. On the procedure: (§1) Spores were isolated from previously sub-cultured plates of Botrytis cinerea, Phytophthora capsici, Fusarium moniliforme, Fusarium viguliforme, Collectotrichum graminicola, and Diplodia maydis. All spores were filtered and collected in a sterile glass bowl to isolate the spores from the mycelia. The isolation and sub-culture plate condition for each pathogen is described below.
Spore isolation for F. virguliforme: A 2-3 week old PDA (pre-mix) plate containing cefotaxime (100 mg/L) and kanamycin (50 mg/L) was removed from 26° C. incubator with a light/dark 12 hour cycle and the mycelia were treated with 5-10 ml of filter sterilized distilled water. The mycelia were scraped to re-suspend the spores. The spores were then collected in a sterile filter bowl containing a fluted piece of filter paper and poured into a conical tube.
(§2) After spore isolation, pathogen spores were counted on a hemocytometer to calculate the spores/ml. In 17% V8 liquid media containing 3 g/L CaCO3, isolated spores were diluted to individual concentrations based on the growth curves at 48 hours of each pathogen. The spore concentrations for each pathogen were as follows: B. cinerea—10,000 sp/ml; P. capsici—300 sp/ml; F. monliforme—500 sp/ml; F. virguliforme—500 sp/ml; C. graminicola—3,000 sp/ml; and D. maydis—3,000 sp/ml.
(§3) Chemistry stocks were dissolved in DMSO at 2.5 mg/ml. Chemistry was diluted in a 96-well stock plate in five-fold dilutions to obtain a final concentration of 50, 10, and 2 ppm in vitro. The final concentration of the positive control after the five-fold dilutions was as follows: soraphen—0.5, 0.1, and 0.02 ppm. Negative controls on each plate included 2% DMSO, water containing spores and media, and a blank for background subtraction.
(§4) In a 96-well plate the spore solution, chemistries, and controls were combined to make the final solution concentrations mentioned above. Upon addition of the chemistry, an OD600 reading was done to assess chemical precipitation. The 96-well plates were incubated in plastic tubs containing wet paper towels under the following conditions, 25° C. in the dark for P. capsici and B. cinerea or 26° C. with light/dark cycle for C. graminicola, D. maydis, F. virguliforme, F. monliforme. Plate readings were repeated at 24 and 48 hrs. Visual ratings were performed at 24 and 48 hrs to check for precipitation and confirm efficacy. Visual and OD600 ratings of the chemistry at 48 hours were compared to the 2% DMSO control to determine the percent of pathogen growth inhibition.

For a further test, the system named is Saccharomyces cerevisiae. The test is described as follows: Yeast growth inhibition assay. The following applies: read-out: S. cerevisiae % growth inhibition. On the procedure: Yeast cells (Ade2 strain) were grown in liquid YPD (1% yeast extract, 2% peptone, 2% dextrose) for 16 hours at 30° C. from previously sub-cultured plates of Saccharomyces cerevisiae. The OD600 of the overnight culture was checked via spectrophotometer and diluted to a concentration of 2×10^4 cells/ml.
Chemistry stocks were dissolved in DMSO to a concentration of 10 mM. Chemistry stocks were further diluted in a 96-well stock plate to obtain final concentrations of […] in 1% DMSO. The final concentrations of the soraphen positive control were 400, 40, and 3.2 nM. The negative controls on each plate included a background subtraction control containing yeast and 1% DMSO (without chemistry) and a second contamination control containing YPD (with no yeast) and 1% DMSO (without chemistry).
98 μl liquid YPD was added to 2 μl diluted stock of DMSO per well and mixed thoroughly. After mixing, 100 μl of the diluted yeast solution was added to bring the final yeast concentration to 1×10^4 cells/ml or 2000 cells per well. An initial spectrophotometric reading at OD600 was conducted on the entire plate and served as the 0 hours time point used to subtract any background. […] […] […] All experiments were conducted in triplicate. Averages were reported along with standard deviation calculation to generate error bars. Each plate contained its own controls and consisted of inoculated+DMSO, non-inoculated+DMSO, and a titration series of soraphen at 400, 40, and 3.2 nM.

A further test concerns Fusarium moniloforme. The test can be described thus: Fungal growth inhibition assay, F. moniliforme. The following applies: 48 h. On the procedure:
as §1
Spore isolation for F. moniliforme: A 1 week old PDA (potato dextrose agar, pre-mix) plate was removed from 26° C. incubator with a light/dark 12 hour cycle and the mycelia were treated with 5-10 ml of filter sterilized Triton X 100 (0.05%). The mycelia were scraped to re-suspend the spores. The spores were then collected in a sterile filter bowl containing a fluted piece of filter paper.
as §2, §3, §4

In the next test the test system is Phytophthora capsici. The test is described as follows: Fungal growth inhibition assay, P. capsici. The following applies: 48 h.
Source text: as §1
Spore isolation for P. capsici: Three to five days prior to the assay a 2-3 week old V8 (17%)+CaCO3 (3 g/L)+20 g agar plate was removed from a dark 25° C. incubator and cut up into small chunks. One plate was separated into two deep well plates and rinsed with sterile distilled water three times. The cut up pieces were incubated under light in a sterile filter hood with 25 ml of sterile distilled water. On the day of the assay the water was removed and 5-7 ml of fresh sterile distilled water was added. One plate was incubated at 4° C. for 45-60 minutes and then placed at room temperature for about 45-60 minutes. The spores were collected in a sterile filter bowl containing a fluted piece of filter paper. The spores were vortexed in a conical tube for 30-60 seconds to remove the flagella of the zoospores after isolation.
as §2, §3, §4

The inhibition is the share of the control response that was lost under treatment. In the test with Fusarium virguliforme, `O=C(O)Cc1ccc(-c2nc3ccccc3c(-c3ccccc3)c2Cl)s1` [Formula Ib-ii, 2-(5-(3-chloro-4-phenylquinolin-2-yl)thiophen-2-yl)acetic acid] showed an inhibition at 2 ppm of 31% and an inhibition at 10 ppm of 41%. Besides, in the test with Saccharomyces cerevisiae, the inhibition at 3.7 µM came to 0%, the inhibition at 11.1 µM came out at 0%, the inhibition at 33.3 µM was determined as 55% and the inhibition at 100 µM turned out to be 79%. Besides, in the test with Fusarium moniloforme, the inhibition at 2 ppm was 39% and the inhibition at 10 ppm was 45%. In the test with Phytophthora capsici, this molecule registered an inhibition at 2 ppm of 18%, an inhibition at 10 ppm of 31% and an inhibition at 50 ppm of 49%.
Consider `O=C(O)Cc1ccc(-c2cc(-c3ccccc3)c3ccccc3n2)s1` [Formula Ib-iv, 2-(5-(4-phenylquinolin-2-yl)thiophen-2-yl)acetic acid], for which, in the test with Fusarium virguliforme, the inhibition at 2 ppm is 4% and the inhibition at 10 ppm was determined as 29%. In the test on Saccharomyces cerevisiae, the inhibition at 3.7 µM came to 0%, the inhibition at 11.1 µM is 0%, the inhibition at 33.3 µM came to 15% and the inhibition at 100 µM is 99%. In the test with Fusarium moniloforme, this molecule registered an inhibition at 2 ppm of 17% and an inhibition at 10 ppm of 31%. Besides, in the test with Fusarium moniloforme (50 ppm), at 50 ppm the inhibition was 36%. In the test with Phytophthora capsici, this molecule returned an inhibition at 2 ppm of 0%, an inhibition at 10 ppm of 11% and an inhibition at 50 ppm of 80%.
